# Experimental data taken from paper PMC11233931, “Remodeling tumor‐associated macrophage for anti‐cancer effects by rational design of irreversible inhibition of mitogen‐activated protein kinase‐activated protein kinase 2” (MedComm, 2024).
# Columns and labels:
# Assay in all cases: Eurofins kinase selectivity profile against 380 other human recombinant kinases (Table S2)
# Assay type in all cases: biochemical
# [1] = biological target: T1, 380 human recombinant protein kinases (Homo sapiens, UniProt Q9NQU5); settings: PAK6(h), read-out: Inhibition rate
# T1 construct: purchased Eurofins (Celle Lévescault)
# T1 sequence (Q9NQU5 whole entry): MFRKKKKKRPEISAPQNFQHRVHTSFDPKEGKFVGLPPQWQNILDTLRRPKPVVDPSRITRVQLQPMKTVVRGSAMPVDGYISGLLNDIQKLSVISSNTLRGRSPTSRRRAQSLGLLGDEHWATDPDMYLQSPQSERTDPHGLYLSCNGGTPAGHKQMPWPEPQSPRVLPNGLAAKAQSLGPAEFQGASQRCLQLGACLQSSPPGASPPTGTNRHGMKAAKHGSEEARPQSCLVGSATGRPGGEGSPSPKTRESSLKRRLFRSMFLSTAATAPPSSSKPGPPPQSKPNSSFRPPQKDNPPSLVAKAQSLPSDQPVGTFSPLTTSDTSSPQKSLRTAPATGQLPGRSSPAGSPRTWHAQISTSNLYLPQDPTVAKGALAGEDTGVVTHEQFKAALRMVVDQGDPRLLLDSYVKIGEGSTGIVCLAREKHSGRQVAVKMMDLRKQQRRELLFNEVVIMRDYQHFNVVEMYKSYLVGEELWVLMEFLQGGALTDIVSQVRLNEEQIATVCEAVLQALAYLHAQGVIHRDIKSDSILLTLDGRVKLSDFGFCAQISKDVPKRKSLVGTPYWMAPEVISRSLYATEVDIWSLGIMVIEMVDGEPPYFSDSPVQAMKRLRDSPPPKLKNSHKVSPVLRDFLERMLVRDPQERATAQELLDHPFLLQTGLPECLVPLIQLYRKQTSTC
# In short: (§1)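 Off-target profiling: one compound assayed by a commercial provider over 380 recombinant human protein kinases at various concentrations.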
# [2] = biological target: T2, 380 human recombinant protein kinases (Homo sapiens, UniProt P41743); settings: PKCι(h), read-out: Inhibition rate
# T2 construct: purchased Eurofins (Celle Lévescault)
# T2 sequence (P41743 1-596): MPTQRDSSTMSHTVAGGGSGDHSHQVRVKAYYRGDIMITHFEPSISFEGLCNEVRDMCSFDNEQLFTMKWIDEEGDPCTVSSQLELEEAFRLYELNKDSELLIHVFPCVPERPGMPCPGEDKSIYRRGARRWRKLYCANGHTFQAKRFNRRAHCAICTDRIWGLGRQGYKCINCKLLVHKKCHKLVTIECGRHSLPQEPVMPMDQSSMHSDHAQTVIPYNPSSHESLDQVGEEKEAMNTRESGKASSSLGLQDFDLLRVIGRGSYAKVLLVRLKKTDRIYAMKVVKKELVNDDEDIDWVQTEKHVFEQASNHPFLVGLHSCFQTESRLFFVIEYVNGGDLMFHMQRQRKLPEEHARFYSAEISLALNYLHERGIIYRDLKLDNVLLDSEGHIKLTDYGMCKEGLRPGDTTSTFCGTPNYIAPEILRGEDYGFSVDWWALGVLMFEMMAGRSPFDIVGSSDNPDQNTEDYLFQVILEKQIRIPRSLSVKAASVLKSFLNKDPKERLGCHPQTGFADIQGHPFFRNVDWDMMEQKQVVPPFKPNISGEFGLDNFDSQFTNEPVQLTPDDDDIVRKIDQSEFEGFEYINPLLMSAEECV
# In short: as §1
# [3] = biological target: T3, 380 human recombinant protein kinases (Homo sapiens, UniProt Q5S007); settings: LRRK2(h), read-out: Inhibition rate
# T3 construct: purchased Eurofins (Celle Lévescault)
# T3 sequence (Q5S007 whole entry): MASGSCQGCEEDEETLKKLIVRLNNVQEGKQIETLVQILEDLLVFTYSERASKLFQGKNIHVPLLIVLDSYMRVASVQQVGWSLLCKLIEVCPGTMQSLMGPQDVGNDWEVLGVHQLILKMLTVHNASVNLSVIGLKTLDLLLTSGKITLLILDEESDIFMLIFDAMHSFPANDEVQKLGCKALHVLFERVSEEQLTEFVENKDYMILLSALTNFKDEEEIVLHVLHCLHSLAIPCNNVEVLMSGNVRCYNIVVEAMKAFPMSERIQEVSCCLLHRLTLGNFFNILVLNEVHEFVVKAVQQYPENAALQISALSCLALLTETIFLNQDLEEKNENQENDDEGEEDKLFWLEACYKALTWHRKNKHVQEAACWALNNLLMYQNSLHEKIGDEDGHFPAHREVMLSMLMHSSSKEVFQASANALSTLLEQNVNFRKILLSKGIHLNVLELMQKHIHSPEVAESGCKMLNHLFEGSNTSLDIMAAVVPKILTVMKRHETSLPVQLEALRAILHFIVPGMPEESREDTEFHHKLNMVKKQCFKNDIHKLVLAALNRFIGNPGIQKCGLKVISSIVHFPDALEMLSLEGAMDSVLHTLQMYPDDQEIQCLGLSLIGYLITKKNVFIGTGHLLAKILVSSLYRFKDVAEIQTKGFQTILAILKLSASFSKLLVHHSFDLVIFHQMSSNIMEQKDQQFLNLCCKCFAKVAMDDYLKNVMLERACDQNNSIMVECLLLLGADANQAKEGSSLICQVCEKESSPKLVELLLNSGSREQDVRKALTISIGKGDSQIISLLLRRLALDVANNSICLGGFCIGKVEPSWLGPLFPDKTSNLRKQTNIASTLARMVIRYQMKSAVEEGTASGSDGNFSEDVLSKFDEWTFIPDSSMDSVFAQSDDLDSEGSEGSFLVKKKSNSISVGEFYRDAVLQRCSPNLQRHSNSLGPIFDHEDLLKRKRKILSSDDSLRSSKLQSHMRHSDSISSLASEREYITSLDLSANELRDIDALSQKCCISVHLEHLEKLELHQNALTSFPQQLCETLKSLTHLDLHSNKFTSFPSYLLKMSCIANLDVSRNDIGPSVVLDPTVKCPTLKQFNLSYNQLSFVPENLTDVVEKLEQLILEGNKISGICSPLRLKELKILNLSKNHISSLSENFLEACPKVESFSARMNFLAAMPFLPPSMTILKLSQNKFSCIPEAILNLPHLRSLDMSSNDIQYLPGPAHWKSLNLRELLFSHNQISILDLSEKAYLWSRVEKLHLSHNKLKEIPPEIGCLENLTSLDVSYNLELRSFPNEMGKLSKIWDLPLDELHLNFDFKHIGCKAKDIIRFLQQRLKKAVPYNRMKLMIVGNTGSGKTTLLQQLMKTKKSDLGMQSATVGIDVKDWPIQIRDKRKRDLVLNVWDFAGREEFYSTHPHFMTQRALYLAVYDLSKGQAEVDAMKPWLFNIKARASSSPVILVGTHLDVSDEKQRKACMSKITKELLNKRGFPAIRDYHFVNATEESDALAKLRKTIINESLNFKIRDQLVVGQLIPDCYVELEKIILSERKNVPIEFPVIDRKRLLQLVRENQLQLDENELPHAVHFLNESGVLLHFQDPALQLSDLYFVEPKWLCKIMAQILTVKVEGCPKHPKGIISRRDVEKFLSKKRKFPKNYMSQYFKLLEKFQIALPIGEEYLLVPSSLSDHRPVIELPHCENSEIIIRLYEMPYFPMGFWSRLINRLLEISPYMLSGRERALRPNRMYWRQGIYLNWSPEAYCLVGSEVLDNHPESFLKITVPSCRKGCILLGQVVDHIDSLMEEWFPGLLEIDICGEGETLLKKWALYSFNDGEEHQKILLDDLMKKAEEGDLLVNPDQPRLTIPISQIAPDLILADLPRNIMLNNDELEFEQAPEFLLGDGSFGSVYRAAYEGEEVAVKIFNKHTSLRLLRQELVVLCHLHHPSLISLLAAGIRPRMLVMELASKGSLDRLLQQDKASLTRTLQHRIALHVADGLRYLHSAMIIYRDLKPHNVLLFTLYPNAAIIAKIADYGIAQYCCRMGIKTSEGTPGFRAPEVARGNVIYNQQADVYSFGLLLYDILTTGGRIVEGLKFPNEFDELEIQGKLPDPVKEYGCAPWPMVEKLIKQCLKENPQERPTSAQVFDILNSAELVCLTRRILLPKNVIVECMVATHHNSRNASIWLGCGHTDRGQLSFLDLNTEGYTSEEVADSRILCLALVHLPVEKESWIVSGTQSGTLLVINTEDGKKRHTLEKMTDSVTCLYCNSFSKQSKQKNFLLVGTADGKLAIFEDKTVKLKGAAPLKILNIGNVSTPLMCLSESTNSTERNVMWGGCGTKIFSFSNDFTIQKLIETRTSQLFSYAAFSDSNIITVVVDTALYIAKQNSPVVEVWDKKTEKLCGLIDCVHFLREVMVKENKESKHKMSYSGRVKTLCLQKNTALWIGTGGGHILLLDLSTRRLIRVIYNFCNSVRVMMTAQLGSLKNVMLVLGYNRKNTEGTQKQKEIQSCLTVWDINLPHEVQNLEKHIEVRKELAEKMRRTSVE
# In short: as §1
# [4] = biological target: T4, 380 human recombinant protein kinases (Homo sapiens, UniProt Q96PN8); settings: TSSK3(h), read-out: Inhibition rate (%)
# T4 construct: purchased Eurofins (Celle Lévescault)
# T4 sequence (Q96PN8 1-268): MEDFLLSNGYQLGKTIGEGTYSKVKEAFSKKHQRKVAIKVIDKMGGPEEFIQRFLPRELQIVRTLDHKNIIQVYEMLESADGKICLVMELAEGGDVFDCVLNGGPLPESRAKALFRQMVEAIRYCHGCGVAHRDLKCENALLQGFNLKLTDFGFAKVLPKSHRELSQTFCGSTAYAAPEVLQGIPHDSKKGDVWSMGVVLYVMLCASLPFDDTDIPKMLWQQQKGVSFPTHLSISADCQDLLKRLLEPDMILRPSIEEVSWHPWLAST
# In short: as §1
# [5] = biological target: T5, 380 human recombinant protein kinases (Homo sapiens, UniProt Q92519); settings: TRB2(h), read-out: Inhibition rate (%)
# T5 construct: purchased Eurofins (Celle Lévescault)
# T5 sequence (Q92519 1-343): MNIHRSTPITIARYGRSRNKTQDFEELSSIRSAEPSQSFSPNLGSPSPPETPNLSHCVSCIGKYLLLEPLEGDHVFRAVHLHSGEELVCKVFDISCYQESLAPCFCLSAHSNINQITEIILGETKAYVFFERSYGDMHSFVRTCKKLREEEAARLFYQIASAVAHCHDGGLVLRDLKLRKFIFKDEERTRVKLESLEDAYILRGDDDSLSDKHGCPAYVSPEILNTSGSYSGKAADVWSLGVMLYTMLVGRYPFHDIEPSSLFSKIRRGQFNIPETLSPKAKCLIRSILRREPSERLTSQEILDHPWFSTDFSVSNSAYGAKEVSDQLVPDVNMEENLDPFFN
# In short: as §1
# [6] = biological target: T6, 380 human recombinant protein kinases (Homo sapiens, UniProt P06239); settings: Lck(h), read-out: Inhibition rate
# T6 construct: purchased Eurofins (Celle Lévescault)
# T6 sequence (P06239 whole entry): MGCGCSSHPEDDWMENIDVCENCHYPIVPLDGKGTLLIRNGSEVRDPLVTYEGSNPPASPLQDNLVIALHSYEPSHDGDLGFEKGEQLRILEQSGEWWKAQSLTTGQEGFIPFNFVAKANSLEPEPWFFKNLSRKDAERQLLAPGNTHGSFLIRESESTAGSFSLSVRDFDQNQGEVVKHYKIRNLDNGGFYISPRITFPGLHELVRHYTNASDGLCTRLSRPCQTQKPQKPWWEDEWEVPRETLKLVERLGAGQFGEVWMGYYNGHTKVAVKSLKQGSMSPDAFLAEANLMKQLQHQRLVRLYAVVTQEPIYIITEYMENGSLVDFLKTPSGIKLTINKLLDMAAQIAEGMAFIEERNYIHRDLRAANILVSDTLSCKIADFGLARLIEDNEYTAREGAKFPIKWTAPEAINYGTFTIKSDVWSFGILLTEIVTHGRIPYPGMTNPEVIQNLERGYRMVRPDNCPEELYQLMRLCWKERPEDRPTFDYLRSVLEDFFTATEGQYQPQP
# In short: as §1
smiles,measurement,setting,value
C=CC(=O)Nc1cc(-c2cc(-c3cc4c([nH]3)CCNC4=O)ccn2)ccc1OC(F)(F)F [compound 11],inhibition at 0.01 µM,[1]; 10 nM,-2%
same,inhibition at 0.1 µM,[1]; 100 nM,-5%
same,inhibition at 1 µM,[1]; 1000 nM,-2%
same,inhibition at 0.01 µM,[2]; 10 nM,0%
same,inhibition at 0.1 µM,[2]; 100 nM,5%
same,inhibition at 1 µM,[2]; 1000 nM,8%
same,inhibition at 0.01 µM,[3]; 10 nM,-4%
same,inhibition at 0.1 µM,[3]; 100 nM,17%
same,inhibition at 1 µM,[3]; 1000 nM,74%
same,inhibition at 0.01 µM,[4]; 10 nM,0%
same,inhibition at 0.1 µM,[4]; 100 nM,5%
same,inhibition at 1 µM,[4]; 1000 nM,-2%
same,inhibition at 0.01 µM,[5]; 10 nM,29%
same,inhibition at 0.1 µM,[5]; 100 nM,58%
same,inhibition at 1 µM,[5]; 1000 nM,85%
same,inhibition at 0.01 µM,[6]; 10 nM,-7%
same,inhibition at 0.1 µM,[6]; 100 nM,-5%
same,inhibition at 1 µM,[6]; 1000 nM,-10%
